Results reported in paper PMC6348423, “Rapid Mapping of Protein Interactions Using Tag‐Transfer Photocrosslinkers” (Angewandte Chemie (International Ed. in English), 2018).
Peptide text beside a SMILES is read from it. * marks the point of attachment. X2 = CC1(CCS*)N=N1

B1: OmpA: E. coli β-barrel outer membrane protein, substrate of the periplasmic chaperone Skp (protein, UniProt P0A910 22-346, looked up)
Outer membrane protein A: APKDNTWYTGAKLGWSQYHDTGFINNNGPTHENQLGAGAFGGYQVNPYVGFEMGYDWLGRMPYKGSVENGAYKAQGVQLTAKLGYPITDDLDIYTRLGGMVWRADTKSNVYGKNHDTGVSPVFAGGVEYAITPEIATRLEYQWTNNIGDAHTIGTRPDNGMLSLGVSYRFGQGEAAPVVAPAPAPAPEVQTKHFTLKSDVLFNFNKATLKPEGQAALDQLYSQLSNLDPKDGSVVVLGYTDRIGSDAYNQGLSERRAQSVVDYLISKGIPADKISARGMGESNPVTGNTCDNVKQRAALIDCLAPDRRVEIEVKGIKDVVTQPQA

What was measured:
MCL-1 = biological target: T1, MCL-1 (Homo sapiens, UniProt Q07820); assay: Photo-crosslinking of labelled BID80-102 peptides to MCL-1, SDS-PAGE band intensity; settings: 20 μM labelled peptide + 20 μM MCL-1, TBS pH 7.6; 365 nm UV LED, 1 min; SDS-PAGE band intensity of crosslinked vs non-crosslinked MCL-1; value ± SD of three repeats; SD
T1 construct: made in house
Description: Cross-linking experiments
For all irradiation methods, samples were prepared in the following way. For crosslinking of MCL-1/BID80-102, 20 μL of a solution containing MTS-diazirine or MTS-TFMD labelled BID80-102 peptide (20 μM) and MCL-1 (20 μM) in buffer 50 mM Tris-HCl, 150 mM NaCl (TBS) pH 7.6 was prepared. […]
This was then placed under a covered LF-206.LS 6 W 365 nm lamp (Uvitec) at a distance of 12 mm from the source for different times up to 30 min. For UV LED chip experiments, acrylic chip chambers were washed with TBS pH 7.6 buffer and 33 µL of sample was added. These were then clamped into the chip holder and irradiated with the 365 nm LED for up to 30 s. A pipette was used to remove the sample from the chip via the lower filling hole. For UV LED tube experiments, 30-130 µL of sample was added to a thin-walled PCR tube and placed inside a 0.5 mL microfuge tube which itself was in a 1.5 mL microfuge tube that had been wrapped in aluminium foil (to reflect the UV irradiation within the containers). Samples were irradiated with the 365 nm LED for 30 s. To crosslink MCL-1 BID80-102, samples were irradiated using this apparatus for 1 min.
Separation and enrichment of cross-linked products
To separate and/or enrich crosslinked samples three methods were used as described in the main text.
Table S1: Affinity (EC50) of labelled BID80-102 peptides to MCL-1 as determined by competition fluorescence anisotropy assay. Crosslinking efficiency of labelled BID80-102 peptides to MCL-1 based on the SDS-PAGE band intensity of crosslinked and non-crosslinked […]
The values and standard deviations are results of three repeats. n.d = not determined as binding was too weak to enable an accurate fit to be obtained.
BID peptide EC50 for affinity to MCL-1 (nM) Crosslinked Mcl-1 (%)

Skp = settings: read-out: KD of Skp/OmpA complex; cited from earlier work

T1 sequence (Q07820 whole entry): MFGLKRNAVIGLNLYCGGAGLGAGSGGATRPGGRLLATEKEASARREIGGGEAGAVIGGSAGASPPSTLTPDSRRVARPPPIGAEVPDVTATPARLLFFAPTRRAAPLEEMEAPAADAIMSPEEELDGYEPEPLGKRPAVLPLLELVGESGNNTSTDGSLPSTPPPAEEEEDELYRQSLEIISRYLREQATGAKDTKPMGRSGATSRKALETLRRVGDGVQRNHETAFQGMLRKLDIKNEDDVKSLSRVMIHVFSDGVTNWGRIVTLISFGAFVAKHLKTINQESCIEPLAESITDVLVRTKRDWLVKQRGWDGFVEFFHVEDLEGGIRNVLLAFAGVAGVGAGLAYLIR

| Molecule | Crosslinked Mcl-1 (crosslinking efficiency) (MCL-1) [%] | Kd (Skp) [nM] |
| --- | --- | --- |
| CC[C@H](C)[C@H](NC(=O)[C@H](CC(N)=O)NC(=O)[C@H](CCCNC(=N)N)NC(=O)[C@@H](NC(=O)[C@@H](NC(=O)[C@H](CC(=O)O)NC(=O)[C@H](CCC(=O)O)NC(C)=O)[C@@H](C)CC)[C@@H](C)CC)C(=O)N[C@@H](C)C(=O)N[C@@H](CCCNC(=N)N)C(=O)N[C@@H](Cc1c[nH]cn1)C(=O)N[C@@H](CC(C)C)C(=O)N[C@@H](C)C(=O)N[C@@H](CCC(N)=O)C(=O)N[C@H](C(=O)NCC(=O)N[C@@H](CC(=O)O)C(=O)N[C@@H](CO)C(=O)N[C@@H](CCSC)C(=O)N[C@@H](CC(=O)O)C(=O)N[C@@H](CCCNC(=N)N)C(=O)N[C@@H](CSSCc1ccc(C2(C(F)(F)F)N=N2)cc1)C(=O)N[C@H](C(=O)N[C@@H](Cc1c[nH]c2ccccc12)C(N)=O)[C@@H](C)CC)C(C)C [MTS-TMFD labelled S100C] | 31 ± 3 |  |
| CC[C@H](C)[C@H](NC(=O)[C@H](CC(N)=O)NC(=O)[C@H](CCCNC(=N)N)NC(=O)[C@@H](NC(=O)[C@@H](NC(=O)[C@H](CC(=O)O)NC(=O)[C@H](CCC(=O)O)NC(C)=O)[C@@H](C)CC)[C@@H](C)CC)C(=O)N[C@@H](C)C(=O)N[C@@H](CCCNC(=N)N)C(=O)N[C@@H](Cc1c[nH]cn1)C(=O)N[C@@H](CC(C)C)C(=O)N[C@@H](C)C(=O)N[C@@H](CCC(N)=O)C(=O)N[C@H](C(=O)NCC(=O)N[C@@H](CC(=O)O)C(=O)N[C@@H](CO)C(=O)N[C@@H](CSSCCC1(C)N=N1)C(=O)N[C@@H](CC(=O)O)C(=O)N[C@@H](CCCNC(=N)N)C(=O)N[C@@H](CO)C(=O)N[C@H](C(=O)N[C@@H](Cc1c[nH]c2ccccc12)C(N)=O)[C@@H](C)CC)C(C)C [MTS-diazirine labelled M97C] (Ac-EDIIRNIARHLAQVGDSC(X2)DRSIW-NH2) | 41 ± 6 |  |
| B1 |  | 22 ± 16 |
